Values quoted from earlier work, collected in article PMC5447021, “TNF Lectin-Like Domain Restores Epithelial Sodium Channel Function in Frameshift Mutants Associated with Pseudohypoaldosteronism Type 1B” (Frontiers in Immunology, 2017).

Legend:
[1] = tested on: γ-ENaC; conditions: HEK-293, 5 and 10 min; cited from earlier work
[2] = biological target: T1, αβγ-hENaC (Homo sapiens, UniProt P37088+P51168+P51170); design: method as in 2 sources, ref 16 = [16]; PMID 24077967; doi:10.1124/mol.113.089409; 16 Shabbir W Scherbaum-Hazemi P Tzotzos S Fischer B Fischer H Pietschmann H Mechanism of action of novel lung edema therapeutic AP301 by activation of the epithelial sodium channel . Mol Pharmacol ( 2 ||| ref 24 = [24]; PMID 20979368; doi:10.1021/jm100767p; 24 Hazemi P Tzotzos SJ Fischer B Andavan GS Fischer H Pietschmann H Essential structural features of TNF-α lectin-like domain derived peptides for activation of amiloride-sensitive sodium current in A; conditions: αβγ-hENaC in HEK-293, whole-cell, -100 mV, amiloride-sensitive control current 75.8 ± 4.5 pA, mean ± S.E.; cited from earlier work
T1 construct: expressed in transfected cells; host or cells: HEK-293
T1 sequence (P37088 1-669): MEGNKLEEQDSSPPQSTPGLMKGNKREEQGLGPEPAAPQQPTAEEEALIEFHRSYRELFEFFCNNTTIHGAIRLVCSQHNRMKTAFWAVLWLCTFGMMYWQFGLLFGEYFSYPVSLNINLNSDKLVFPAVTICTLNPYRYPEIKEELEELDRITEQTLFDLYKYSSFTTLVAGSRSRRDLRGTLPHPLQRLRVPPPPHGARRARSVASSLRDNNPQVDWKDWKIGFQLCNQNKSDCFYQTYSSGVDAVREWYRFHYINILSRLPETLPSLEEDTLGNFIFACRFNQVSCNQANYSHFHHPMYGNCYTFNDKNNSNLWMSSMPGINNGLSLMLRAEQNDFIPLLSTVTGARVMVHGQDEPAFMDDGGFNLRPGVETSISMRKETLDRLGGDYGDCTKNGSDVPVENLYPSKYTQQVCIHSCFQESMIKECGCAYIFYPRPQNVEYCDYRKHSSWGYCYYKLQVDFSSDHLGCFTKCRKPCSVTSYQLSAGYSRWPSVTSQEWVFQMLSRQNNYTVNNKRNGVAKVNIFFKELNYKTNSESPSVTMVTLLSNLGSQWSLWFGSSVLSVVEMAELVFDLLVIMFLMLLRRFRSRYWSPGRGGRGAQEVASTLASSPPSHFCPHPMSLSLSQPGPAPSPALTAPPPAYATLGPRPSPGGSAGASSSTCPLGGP
T1 sequence (P51168 1-640 partner): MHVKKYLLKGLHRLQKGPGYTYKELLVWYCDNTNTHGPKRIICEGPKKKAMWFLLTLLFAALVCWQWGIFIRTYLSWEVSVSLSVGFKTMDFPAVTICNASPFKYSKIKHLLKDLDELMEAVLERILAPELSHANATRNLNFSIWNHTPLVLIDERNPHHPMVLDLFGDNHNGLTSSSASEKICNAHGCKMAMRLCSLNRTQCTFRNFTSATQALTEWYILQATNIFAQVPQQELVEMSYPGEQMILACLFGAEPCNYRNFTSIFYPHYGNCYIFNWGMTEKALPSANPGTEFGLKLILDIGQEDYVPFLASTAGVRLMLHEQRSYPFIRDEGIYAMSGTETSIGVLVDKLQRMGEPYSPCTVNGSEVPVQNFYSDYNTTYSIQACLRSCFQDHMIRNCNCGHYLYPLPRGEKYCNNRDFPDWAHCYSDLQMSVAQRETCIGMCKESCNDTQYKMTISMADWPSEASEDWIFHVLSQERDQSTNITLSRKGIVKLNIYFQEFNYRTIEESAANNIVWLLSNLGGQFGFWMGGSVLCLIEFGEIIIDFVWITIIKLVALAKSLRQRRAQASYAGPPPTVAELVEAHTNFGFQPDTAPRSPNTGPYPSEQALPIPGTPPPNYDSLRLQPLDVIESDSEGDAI
T1 sequence (P51170 1-649 partner): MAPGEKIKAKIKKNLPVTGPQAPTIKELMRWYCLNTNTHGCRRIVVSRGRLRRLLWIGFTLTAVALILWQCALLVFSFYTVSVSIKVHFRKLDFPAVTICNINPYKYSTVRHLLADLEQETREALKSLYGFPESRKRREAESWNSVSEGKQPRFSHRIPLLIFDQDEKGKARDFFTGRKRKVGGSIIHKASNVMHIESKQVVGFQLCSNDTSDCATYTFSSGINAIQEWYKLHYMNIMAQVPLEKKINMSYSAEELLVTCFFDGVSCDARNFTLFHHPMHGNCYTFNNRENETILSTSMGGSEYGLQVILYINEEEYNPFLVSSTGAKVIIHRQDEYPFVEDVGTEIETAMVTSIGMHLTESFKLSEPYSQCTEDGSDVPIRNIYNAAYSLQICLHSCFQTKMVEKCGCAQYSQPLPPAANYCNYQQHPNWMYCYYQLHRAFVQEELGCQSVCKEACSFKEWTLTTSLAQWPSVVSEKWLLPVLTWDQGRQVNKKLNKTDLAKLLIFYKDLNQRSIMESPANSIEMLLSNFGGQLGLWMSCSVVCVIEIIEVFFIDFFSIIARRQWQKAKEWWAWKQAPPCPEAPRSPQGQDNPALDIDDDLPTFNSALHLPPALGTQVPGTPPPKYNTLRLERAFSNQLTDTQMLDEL

C[C@@H]1NC(=O)CNC(=O)[C@H](CCC(=O)O)NC(=O)[C@@H]2CCCN2C(=O)[C@H]([C@@H](C)O)NC(=O)[C@H](CCC(=O)O)NC(=O)[C@H](CCCNC(=N)N)NC(=O)[C@H](CCC(N)=O)NC(=O)CNC(=O)[C@@H](N)CSSC[C@@H](C(=O)O)NC(=O)[C@H](Cc2ccc(O)cc2)NC(=O)[C@H](Cc2c[nH]c3ccccc23)NC(=O)[C@@H]2CCCN2C(=O)[C@H](CCCCN)NC(=O)[C@H](C)NC(=O)[C@H](CCC(=O)O)NC1=O [solnatide, L-cysteine, L-cysteinylglycyl-L-glutaminyl-L-arginyl-L-α-glutamyl-L-threonyl-L-prolyl-L-α-glutamylglycyl-L-alanyl-L-α-glutamyl-L-alanyl-L-lysyl-L-prolyl-L-tryptophyl-L-tyrosyl-, cyclic (1→17)-disulfide]
Membrane abundance, solnatide [1]: only slight | Maximal induced current, solnatide [2]: 953.2 ± 11.5 pA
